Experimental data published in PMC12951562, “SH2scan: Mapping SH2 Domain-Ligand Binding Selectivity for Inhibitors and Degraders” (Journal of Medicinal Chemistry, 2026).
Like-named read-outs stand apart in the source and are kept apart here.

Columns and labels:
Test in all cases: biochemical
Assay type in all cases: binding
SOCS1 = biological target: T1, SOCS1 (Homo sapiens, UniProt O15524); details: read-out: percent of DMSO vehicle control
T1 construct: made in house; host or cells: HEK293 (transient transfection), unpurified extract
T1 sequence (O15524 1-211): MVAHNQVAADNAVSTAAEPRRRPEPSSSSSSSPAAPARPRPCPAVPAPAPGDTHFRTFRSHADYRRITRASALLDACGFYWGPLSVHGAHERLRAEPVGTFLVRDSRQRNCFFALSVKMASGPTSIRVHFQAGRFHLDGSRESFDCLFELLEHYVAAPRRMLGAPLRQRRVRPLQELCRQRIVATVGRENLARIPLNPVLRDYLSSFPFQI

GRB10 = biological target: T2, GRB10 (Homo sapiens, UniProt Q13322); details: for percent of DMSO vehicle control at 10 µM / remaining activity at 10 µM: read-out: percent of DMSO vehicle control; for remaining activity at 10 µM: primary screen
T2 construct: the DNA-tagged SH2 domain concentrations used in this study were <0.1 nM; made in house; host or cells: HEK293 (transient transfection; unpurified extract)
T2 sequence (Q13322 493-574 limits assumed): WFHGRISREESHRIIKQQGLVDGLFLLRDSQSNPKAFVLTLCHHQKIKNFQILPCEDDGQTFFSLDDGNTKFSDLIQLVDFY

GRAP = biological target: T3, GRAP (Homo sapiens, UniProt Q13588); details: read-out: percent of DMSO vehicle control; for remaining activity at 10 µM: primary screen
T3 construct: the DNA-tagged SH2 domain concentrations used in this study were <0.1 nM; made in house; host or cells: HEK293 (transient transfection; unpurified extract)
T3 sequence (Q13588 60-154 limits assumed): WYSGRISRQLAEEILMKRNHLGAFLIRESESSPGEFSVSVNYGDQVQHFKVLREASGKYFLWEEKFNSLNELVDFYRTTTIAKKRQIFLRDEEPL

BRK = biological target: T4, BRK (Homo sapiens, UniProt Q13882); details: for remaining activity at 10 µM: read-out: percent of DMSO vehicle control; for KD: dose-response
T4 construct: the DNA-tagged SH2 domain concentrations used in this study were <0.1 nM; made in house; host or cells: HEK293 (transient transfection; unpurified extract)
T4 sequence (Q13882 78-170 limits assumed): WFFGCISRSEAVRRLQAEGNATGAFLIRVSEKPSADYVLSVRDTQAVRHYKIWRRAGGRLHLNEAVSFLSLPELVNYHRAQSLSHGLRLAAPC

SHC2 = biological target: T5, SHC2 (Homo sapiens, UniProt P98077); details: read-out: percent of DMSO vehicle control
T5 construct: made in house; host or cells: HEK293 (transient transfection), unpurified extract
T5 sequence (P98077 1-582): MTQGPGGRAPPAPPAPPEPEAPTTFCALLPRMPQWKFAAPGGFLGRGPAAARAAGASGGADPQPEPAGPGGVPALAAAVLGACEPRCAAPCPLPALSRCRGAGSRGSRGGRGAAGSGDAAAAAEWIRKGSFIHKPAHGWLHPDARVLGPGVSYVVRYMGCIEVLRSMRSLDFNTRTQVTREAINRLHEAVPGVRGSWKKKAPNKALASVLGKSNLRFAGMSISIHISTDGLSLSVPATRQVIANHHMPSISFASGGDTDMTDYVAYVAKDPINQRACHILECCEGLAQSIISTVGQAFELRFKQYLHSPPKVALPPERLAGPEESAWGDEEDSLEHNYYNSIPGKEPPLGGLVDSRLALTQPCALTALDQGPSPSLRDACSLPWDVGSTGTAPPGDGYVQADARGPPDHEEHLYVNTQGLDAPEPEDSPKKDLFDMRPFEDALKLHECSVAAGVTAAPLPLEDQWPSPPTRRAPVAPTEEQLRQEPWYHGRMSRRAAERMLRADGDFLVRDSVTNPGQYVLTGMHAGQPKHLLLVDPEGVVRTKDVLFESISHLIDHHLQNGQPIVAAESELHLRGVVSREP

PIK3R1(SH2dom.N-term.) = biological target: T6, PIK3R1(SH2dom.N-term.) (Homo sapiens, UniProt P27986); details: read-out: percent of DMSO vehicle control
T6 construct: SH2dom.N-term. denotes SH2 domain closest to N-terminus of protein; made in house; host or cells: HEK293 (transient transfection, unpurified extract)
T6 sequence (P27986 333-428 limits assumed): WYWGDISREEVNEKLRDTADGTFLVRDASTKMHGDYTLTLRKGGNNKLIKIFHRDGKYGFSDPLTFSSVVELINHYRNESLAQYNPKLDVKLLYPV

HSH2D = biological target: T7, HSH2D (Homo sapiens, UniProt Q96JZ2); details: for percent of DMSO vehicle control at 10 µM / remaining activity at 10 µM: read-out: percent of DMSO vehicle control; for remaining activity at 10 µM: primary screen
T7 construct: the DNA-tagged SH2 domain concentrations used in this study were <0.1 nM; made in house; host or cells: HEK293 (transient transfection, unpurified extract)
T7 sequence (Q96JZ2 34-125 limits assumed): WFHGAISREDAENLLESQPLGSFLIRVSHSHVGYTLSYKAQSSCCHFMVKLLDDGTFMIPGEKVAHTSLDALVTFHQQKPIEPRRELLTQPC

NCK2 = biological target: T8, NCK2 (Homo sapiens, UniProt O43639); details: read-out: percent of DMSO vehicle control
T8 construct: the DNA-tagged SH2 domain concentrations used in this study were <0.1 nM; made in house; host or cells: HEK293 (transient transfection, unpurified extract)
T8 sequence (O43639 285-380 limits assumed): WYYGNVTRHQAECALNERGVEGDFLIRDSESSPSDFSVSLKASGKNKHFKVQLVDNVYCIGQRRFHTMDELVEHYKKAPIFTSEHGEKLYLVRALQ

SH2D1B = biological target: T9, SH2D1B (Homo sapiens, UniProt O14796); details: read-out: percent of DMSO vehicle control
T9 construct: made in house; host or cells: HEK293 (transient transfection), unpurified extract
T9 sequence (O14796 1-132): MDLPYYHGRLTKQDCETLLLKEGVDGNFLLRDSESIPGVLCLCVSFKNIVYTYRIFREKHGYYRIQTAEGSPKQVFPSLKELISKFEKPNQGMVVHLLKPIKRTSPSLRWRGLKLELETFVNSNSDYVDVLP

RASA1(SH2dom.N-term.) = biological target: T10, RASA1(SH2dom.N-term.) (Homo sapiens, UniProt P20936); details: read-out: percent of DMSO vehicle control
T10 construct: SH2dom.N-term. denotes SH2 domain closest to N-terminus of protein; made in house; host or cells: HEK293 (transient transfection), unpurified extract
T10 sequence (P20936 181-272 limits assumed): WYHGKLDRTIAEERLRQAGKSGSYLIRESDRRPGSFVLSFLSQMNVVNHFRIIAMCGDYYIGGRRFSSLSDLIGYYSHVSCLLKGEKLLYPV

SH3BP2 = biological target: T11, SH3BP2 (Homo sapiens, UniProt P78314); details: read-out: percent of DMSO vehicle control
T11 construct: made in house; host or cells: HEK293 (transient transfection), unpurified extract
T11 sequence (P78314 1-561): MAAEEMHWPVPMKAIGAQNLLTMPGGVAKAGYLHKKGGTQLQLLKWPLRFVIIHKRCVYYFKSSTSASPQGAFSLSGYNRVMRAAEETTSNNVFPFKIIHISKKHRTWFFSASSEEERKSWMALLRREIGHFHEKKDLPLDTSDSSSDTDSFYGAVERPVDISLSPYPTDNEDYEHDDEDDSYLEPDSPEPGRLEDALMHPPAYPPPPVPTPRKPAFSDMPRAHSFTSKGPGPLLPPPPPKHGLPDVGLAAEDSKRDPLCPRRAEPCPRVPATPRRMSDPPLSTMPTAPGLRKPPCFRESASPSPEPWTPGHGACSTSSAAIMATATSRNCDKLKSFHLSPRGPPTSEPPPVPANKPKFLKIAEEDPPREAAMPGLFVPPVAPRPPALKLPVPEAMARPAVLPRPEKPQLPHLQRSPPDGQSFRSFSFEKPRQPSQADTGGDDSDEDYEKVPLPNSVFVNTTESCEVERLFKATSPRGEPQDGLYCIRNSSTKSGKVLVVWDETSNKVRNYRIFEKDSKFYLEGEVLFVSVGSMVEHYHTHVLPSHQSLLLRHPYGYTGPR

Compound | remaining activity at 10 µM (SOCS1) [%] | percent of DMSO vehicle control at 10 µM (GRB10) [%] | percent of DMSO vehicle control at 10 µM (GRAP) [%] | remaining activity at 10 µM (BRK) [%] | remaining activity at 10 µM (SHC2) [%] | remaining activity at 10 µM (PIK3R1(SH2dom.N-term.)) [%] | percent of DMSO vehicle control at 10 µM (HSH2D) [%] | remaining activity at 10 µM (NCK2) [%] | remaining activity at 10 µM (SOCS1; primary screen, 10 μM) [%] | remaining activity at 10 µM (GRB10) [%] | remaining activity at 10 µM (GRAP) [%] | KD (BRK) | remaining activity at 10 µM (BRK; primary screen, 10 μM) [%] | remaining activity at 10 µM (SHC2; primary screen, 10 μM) [%] | remaining activity at 10 µM (PIK3R1(SH2dom.N-term.); primary screen, 10 μM) [%] | remaining activity at 10 µM (HSH2D) [%] | remaining activity at 10 µM (NCK2; primary screen, 10 μM) [%] | remaining activity at 10 µM (SH2D1B; primary screen, 10 μM) [%] | remaining activity at 10 µM (RASA1(SH2dom.N-term.); primary screen, 10 μM) [%] | remaining activity at 10 µM (SH3BP2; primary screen, 10 μM) [%] | other results
NC(=O)CC[C@H](NC(=O)[C@@H]1CC[C@@H]2CCN(C(=O)CCCCCC#Cc3cccc4c3CN(C3CCC(=O)NC3=O)C4=O)C[C@H](NC(=O)c3cc4cc(C(F)(F)P(=O)(O)O)ccc4[nH]3)C(=O)N21)C(=O)NC(c1ccccc1)c1ccccc1 (some centres unmarked) [SD-36] | 132 ± 8.8 | 111 ± 9.2 | 89.2 ± 4.6 | 76.9 ± 3.5 | 94.9 ± 2.3 | 124 | 72.7 ± 14.5 | 80 ± 38.4 |  |  |  |  |  |  |  |  |  |  |  |  | remaining activity at 10 µM (SH2D1B): 99.6 ± 1.3%; remaining activity at 10 µM (RASA1(SH2dom.N-term.)): 64.7 ± 0.3%; remaining activity at 10 µM (SH3BP2): 91.5 ± 19.4%
CC(=O)N1CC[C@H]2CC[C@@H](C(=O)N[C@@H](CCC(N)=O)C(=O)NC(c3ccccc3)c3ccccc3)N2C(=O)[C@@H](NC(=O)c2cc3cc(C(F)(F)P(=O)(O)O)ccc3[nH]2)C1 [SI-109] | 103 | 122 | 141 | 124 | 131 | 134 | 154 | 121 |  |  |  |  |  |  |  |  |  |  |  |  | remaining activity at 10 µM (SH2D1B): 223%; remaining activity at 10 µM (RASA1(SH2dom.N-term.)): 123%; remaining activity at 10 µM (SH3BP2): 131%
C/C(=C\C(=O)N[C@H](C(=O)N1CCC[C@H]1C(=O)N(c1ccccc1)c1ccc(I)cc1)C(C)(C)C)c1ccc(OP(=O)(O)O)cc1 [STAT6-IN-1] |  |  |  |  |  |  |  |  | 98.5 ± 3.5 | 14.6 ± 11 | 52 ± 15.9 | No Hit | 3 ± 0.4 | 47.3 ± 3.3 | 44.8 ± 5 | 14.6 ± 0.1 | 66.2 ± 8.2 | 49.6 ± 1.2 | 50.2 ± 0.4 | 56.5 ± 0.3 | KD (GRB10; dose-response): No Hit; KD (HSH2D; dose-response): No Hit
CC(C)(C)[C@H](NC(=O)/C=C/c1ccc(OP(=O)(O)O)cc1)C(=O)N1CCC[C@H]1C(=O)N(c1ccccc1)c1ccc(I)cc1 [STAT6-IN-3] |  |  |  |  |  |  |  |  | 95.9 ± 35.6 | 58.8 ± 17.6 | 73.5 ± 23.6 | No Hit | 4.1 ± 47.5 | 85.2 ± 11.3 | 85.6 ± 12.9 | 19.6 ± 29.7 | 102 ± 68.4 | 46 ± 22.7 | 81.7 ± 8.5 | 92.8 ± 2.7 | Kd (HSH2D; dose-response, read-out: KD): 7.6 ± 1.6 µM
O=C(COc1ccc2cc(C(=O)Nc3ccccc3)ccc2c1)NCc1ccc(OP(=O)(O)O)c(OP(=O)(O)O)c1 [Stafib-1] |  |  |  |  |  |  |  |  | 156 | 78.1 ± 12.9 | 76.2 ± 27 | No Hit | 5.4 ± 60.2 | 83.4 ± 24.4 | 88.8 ± 24.3 | 27.1 | 91.4 ± 35.1 | 62.9 ± 9.5 | 71.3 ± 8.8 | 86 ± 3.2 | KD (HSH2D; dose-response): No Hit
